Experimental data as given in patent US9486443B2, “Pharmaceutical composition for preventing or treating hypertriglyceridemia or hypertriglyceridemia-associated diseases” (priority 2011, dated 2016).

Columns and labels:
[1] = tested on: hypertriglyceridemia and hypercholesterolemia-induced animals; experiment: Evaluation of triglyceride-inhibitory activities in hypertriglyceridemia and hypercholesterolemia-induced animals; assay type: in vivo, New Zealand White rabbits; details: oral, Formula 1 20 mg/kg/day, amlodipine 5 mg/kg/day; for average triglyceride concentration, 4 weeks: male rabbits on 0.5% cholesterol, 14% coconut oil diet, once per day for 4 weeks, fasted 12 to 16 hours
Text: Male New Zealand White rabbits were used as a test animal. All animals, except for the G1 group animals (negative control group), were fed with an irradiation-sterilized hypertriglyceridemia and hypercholesterolemia diet, i.e., DYET #621082 (Purina #5321 chow with 0.5% cholesterol, 14% coconut oil & 2% Maltose Dextrin, Dyets, Inc., Bethlehem, Pa. 18017), which was purchased from Saeronbio Inc. In order to induce hypertriglyceridemia and hypercholesterolemia, the animals were supplied with the diet for more than 4 weeks. After collecting the blood samples from the animals, serum biochemical analyses were performed thereon. Animals showing significant changes in total cholesterol levels and triglyceride levels were selected, in comparison with the non-treated control group. The selected animals were divided into 4 groups on the basis of the total cholesterol levels and triglyceride levels, thereby all the groups having substantially equal average values in the total cholesterol levels and triglyceride levels. The test materials were dissolved in saline containing 0.5% carboxymethyl-cellulose sodium and 1% Tween 80 and then administered directly into the stomach using an oral syringe adapted with a latex catheter, once per day for 4 weeks. The test groups are as in the following Table 3.
The blood samples were collected through the jugular vein, from the animals at the day initiating the administration of the test material(s) (i.e., at the time of group-dividing, 0 week), and from the animals (which were fasted for 12 to 16 hours before collecting the blood) at 4 weeks after initiating the administration of the test material(s) (n=4-7).
The triglyceride concentrations in the hypertriglyceridemia and hypercholesterolemia-induced animals as in the above are presented in the following Table 4. The values in Table 4 represent average triglyceride concentrations (mg/dL) of the respective group.

[2] = tested on: hypercholesterolemia-induced animals; experiment: Evaluation of triglyceride-inhibitory activities in hypercholesterolemia-induced animals; assay type: in vivo, New Zealand White rabbits; details: male rabbits on 1% cholesterol diet
Text: Male New Zealand White rabbits were used as a test animal. All animals, except for the G1 group animals (negative control group, n=4), were fed with an irradiation-sterilized hypercholesterolemia diet, i.e., DYET #620007 (Purina #5321 chow with 1% cholesterol, Dyets, Inc., Bethlehem, Pa. 18017), which was purchased from Central Lab. Animal Inc. In order to induce hypercholesterolemia, the animals were supplied with the diet for more than 8 weeks. After collecting the blood samples from the animals, serum biochemical analyses were performed thereon. Animals having total cholesterol levels of approximately 870 mg/dL were selected as a hypercholesterolemia-induced animal. The test materials were dissolved in saline containing 0.5% carboxymethylcellulose sodium and 1% Tween 80 and then administered directly into the stomach using an oral syringe adapted with a latex catheter, once per day for 4 weeks. The test groups are as in the following Table 1. […] The values in Table 2 represent average triglyceride concentrations (mg/dL) of the respective group.

Compound	Percent inhibition of triglyceride in the blood ([1]; 4 weeks, in comparison with the G2 group, once per day) [%]	average triglyceride concentration, 4 weeks [1] [mg/dL]	average triglyceride concentration, 0 week ([2]; baseline sample (0 week), before administration, group average) [mg/dL]	average triglyceride concentration, 2 weeks ([2]; oral, once per day, 2 weeks after initiating administration, fasted 12 to 16 hours, Formula 1 20 mg/kg/day, amlodipine 5, fenofibrate 30) [mg/dL]	average triglyceride concentration, 4 weeks ([2]; oral, once per day, 4 weeks after initiating administration, fasted 12 to 16 hours, Formula 1 20 mg/kg/day, amlodipine 5, fenofibrate 30) [mg/dL]	inhibition at 20 mg/kg ([1]; Oryctolagus cuniculus, 672 h, 4 weeks, in comparison with the G2 group, once per day, read-out: Percent inhibition of triglyceride in the blood) [%]
CCOC(=O)C1=C(COCCN)NC(C)=C(C(=O)OC)C1c1ccccc1Cl (stereo not shown) [Amlodipine, reference compound]	17.9	268.0	–	–	–	–
COc1cc(F)c(C(C)C)cc1-c1ccc(C(F)(F)F)cc1CN1C(=O)O[C@H](c2cc(C(F)(F)F)cc(C(F)(F)F)c2)[C@@H]1C [Compound of Formula 1, (4S,5R)-5-[3,5-bis(trifluoromethyl)phenyl]-3-({2-[4-fluoro-2-methoxy-5-(propan-2-yl)phenyl]-5-(trifluoromethyl)phenyl}methyl)-4-methyl-1,3-oxazolidin-2-one]	–	293.1	167.4	255.8	356.7	10.2
